The values below come from paper PMC3198391, “Mechanism of Disruption of the Amt-GlnK Complex by PII-Mediated Sensing of 2-Oxoglutarate” (PLoS ONE, 2011).

Assay [1] deals with T1, Af-GlnK3 (Archaeoglobus fulgidus, UniProt O28524, F97I).
T1 construct: full length, pET21a, C-terminal pentahistidine tag kept, three Ala (113-115) inserted in linker before tag; E. coli BL21(DE3) Rosetta; 13 kDa monomer, homotrimer; forward primer encodes MKMVVAVI, reverse end TGDEEV; sites between monomers
As to the kind of experiment: isothermal titration calorimetry, one-site model. The format is binding. As to conditions: read-out: Dissociation constantKD. An excerpt: (§1) isothermal titration calorimetry, one-site model on Af-GlnK3
In general terms: ITC needs no label: the signal is the heat of the interaction.

The target of assay [2] is T2, Af-GlnK3 (Archaeoglobus fulgidus, UniProt O28524).
T2 construct: full length, pET21a, C-terminal pentahistidine tag kept, three Ala (113-115) inserted in linker before tag; E. coli BL21(DE3) Rosetta; 13 kDa monomer, homotrimer; forward primer encodes MKMVVAVI, reverse end TGDEEV; sites between monomers
Briefly: isothermal titration calorimetry, one-site model. The format is binding. As to conditions: read-out: Dissociation constantKD.
Description: as §1

Assay [3] has as its target T3, Af-GlnK3 (Archaeoglobus fulgidus, UniProt O28524, F97P).
T3 construct: full length, pET21a, C-terminal pentahistidine tag kept, three Ala (113-115) inserted in linker before tag; E. coli BL21(DE3) Rosetta; 13 kDa monomer, homotrimer; forward primer encodes MKMVVAVI, reverse end TGDEEV; sites between monomers
As to the kind of experiment: isothermal titration calorimetry, one-site model. The following applies: read-out: Dissociation constantKD. In kind it is binding.
Description: as §1

Assay [4] deals with Af-GlnK3 (Archaeoglobus fulgidus) (UniProt O28524). Briefly: SEC; gel filtration during purification; 50 mM Tris-HCl pH 8.0, 300 mM NaCl.
Assay [5] shares this target. As to the kind of experiment: crystal structure; vapour diffusion, sitting drop, trimer fraction from size exclusion chromatography; crystals as isolated, soaked with MgATP or MgADP, or co-crystallised with MgATP and 2-OG. For orientation: SEC sorts molecules by how far they enter the pores of the column.

T1 sequence (O28524 12-120 F97I): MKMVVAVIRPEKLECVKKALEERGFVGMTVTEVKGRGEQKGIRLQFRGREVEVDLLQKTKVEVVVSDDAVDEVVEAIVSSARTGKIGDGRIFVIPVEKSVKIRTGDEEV
Sequence of Af-GlnK3 (from UniProt O28524 1-120) (natural protein) (O28524 whole entry): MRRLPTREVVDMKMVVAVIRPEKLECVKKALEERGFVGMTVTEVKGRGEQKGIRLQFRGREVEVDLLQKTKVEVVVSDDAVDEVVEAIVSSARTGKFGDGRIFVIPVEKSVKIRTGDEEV
T2 sequence (O28524 12-120): as the sequence (O28524 12-120 F97I) above, with I86F counted along it
T3 sequence (O28524 12-120 F97P): as the sequence (O28524 12-120 F97I) above, with I86P counted along it

Consider `Nc1ncnc2c1ncn2[C@@H]1O[C@H](COP(=O)(O)OP(=O)(O)O)[C@@H](O)[C@H]1O` [ADP], for which the figures for the Kd on Af-GlnK3 [1], at Af-GlnK3 [2] and on Af-GlnK3 [3] were 373 µM, 568 µM and 102 µM, respectively.
Taken in the same sequence, the figures for `Nc1ncnc2c1ncn2[C@@H]1O[C@H](COP(=O)(O)OP(=O)(O)OP(=O)(O)O)[C@@H](O)[C@H]1O` [ATP] were 149 µM, 338 µM and 128 µM.
With “Af-GlnK3 (from UniProt O28524 1-120) (natural protein)”, the stoichiometry N in assay [4] and in assay [5] was 3 each time.

A word on the stoichiometry N: it is a count of units in the complex or per binding partner.
